The values below come from patent publication US8592426B2, “Aryl-benzocycloalkyl amide derivatives” (Hoffmann—La Roche Inc., priority 2011, dated 2013).

Assay [1] concerns the target T1, Bradykinin-1 receptor (Homo sapiens (Human), UniProt P46663). Put plainly: Receptor binding assay (B1R Binding Assay), [3H]-Kallidin (Des Arg10, Leu9) displacement. To be noted: membranes from CHO-K1 cells overexpressing Bradykinin-1 receptor; 6 nM radioligand. The procedure: Binding assays were done with membranes from CHO-K1 cells overexpressing Bradykinin-1 receptor.
To determine non-specific binding 10 μM Lys-(Des-Arg^9)-Bradykinin (Bachem) was added. Membranes were harvested through GF/B (glass fiber filter; PerkinElmer) plates, equilibrated with 0.5% polyethylenimine, air dried at 50° C. for 2 h. Radioactivity was determined by counting in a topcounter (NXT Packard).

Assay [2] concerns the target T1, Bradykinin-1 receptor. Briefly: Calcium mobilization assay (FLIPR, Fluo-4) in GeneBLAzer Bradykinin (B1)-NFAT-bla CHO-K1 cells. In kind it is cell-based. To be noted: antagonist activity; CHO-K1 cells stably overexpressing the human bradykinin 1 receptor; read-out: Ca mobilization Assay IC50. The procedure:
Calcium Mobilization Assay
GeneBLAzer® Bradykinin (B1)-NFAT-bla CHO-K1 cells (from Invitrogen) stably overexpressing the human bradykinin 1 receptor were cultured in DMEM (high glucose) supplemented with 10% dialysed FBS, 1% NEAA (non essential amino acids) 1% penicillin/streptomycin, 1% G418 and 0.1 mg/ml zeocin.
For the assay cells were grown overnight in 384-well black clear flat bottom polystyrene plates (Costar) at 37° C. at 5% CO2. After washing with DMEM, 20 mM Hepes, 2.5 mM probenecid, 0.1% BSA (DMEM assay buffer) cells were loaded with 4 μM Fluo-4 in the same DMEM assay buffer for 2 hours at 30° C. Excess dye was removed and cells were washed with DMEM assay buffer. 384-well compound plates were prepared with DMEM assay buffer/0.5% DMSO with or without various concentrations of test compounds. Usually compounds were tested for agonist and antagonist activity.
Test compounds were added to the assay plate and agonist activity was monitored as fluorescence for 80 seconds with a FLIPR (488 nm excitation; 510-570 nm emission; Molecular Devices). After 20-30 min. of incubation at 30° C., 20 nM […] (R&D; Roche) was added and fluorescence was monitored again for 80 seconds. Increases in intracellular calcium are reported as maximum fluorescence after agonist exposure minus basal fluorescence before exposure.
Background: A change in cytosolic calcium serves as a functional read-out for many receptors and channels.

T1 sequence (P46663 whole entry): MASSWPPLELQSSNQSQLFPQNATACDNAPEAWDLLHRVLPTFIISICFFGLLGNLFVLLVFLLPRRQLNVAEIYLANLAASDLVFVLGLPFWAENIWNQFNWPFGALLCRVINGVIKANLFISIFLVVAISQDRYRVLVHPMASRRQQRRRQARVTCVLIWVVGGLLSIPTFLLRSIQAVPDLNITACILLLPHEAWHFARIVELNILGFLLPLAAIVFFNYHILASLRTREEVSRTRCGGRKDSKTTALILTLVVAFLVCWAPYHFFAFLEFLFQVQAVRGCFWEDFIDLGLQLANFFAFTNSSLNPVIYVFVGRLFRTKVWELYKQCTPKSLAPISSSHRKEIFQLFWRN

The compound `Cc1nc(-c2c(F)cc(Cl)cc2-c2cc(F)c3c(c2)CCC3NC(=O)C2(NC(=O)c3ccnnc3)CC2)no1` (racemic) [Example 34, Pyridazine-4-carboxylic acid(1-{(rac)-5-[5-chloro-3-fluoro-2-(5-methyl-[1,2,4]oxadiazol-3-yl)-phenyl]-7-fluoro-indan-1-ylcarbamoyl}-cyclopropyl)-amide] registered a Ki on Bradykinin-1 receptor [1] of 15.1 nM. Also, the IC50 on Bradykinin-1 receptor [2] came to 0.6 nM.
On Bradykinin-1 receptor [1], `COc1cc(C(=O)NC2(C(=O)NC3CCc4cc(-c5cc(Cl)cc(F)c5-c5noc(C)n5)cnc43)CC2)on1` (racemic) [Example 38, 3-Methoxy-isoxazole-5-carboxylic acid(1-{(rac)-3-[5-chloro-3-fluoro-2-(5-methyl-[1,2,4]oxadiazol-3-yl)-phenyl]-6,7-dihydro-5H-[1]pyrindin-7-ylcarbamoyl}-cyclopropyl)-amide] displayed a Ki of 3 nM. In addition, the IC50 on Bradykinin-1 receptor [2] is 0.2 nM.
On Bradykinin-1 receptor [1], `Cc1nc(-c2c(F)cc(Cl)cc2-c2ccc3c(c2)CC[C@@H]3NC(=O)C2(NC(=O)OC(C)(C)C)CC2)no1` [Example 23, (1-{(S)-5-[5-Chloro-3-fluoro-2-(5-methyl-[1,2,4]oxadiazol-3-yl)-phenyl]-indan-1-ylcarbamoyl}-cyclopropyl)-carbamic acid tert-butyl ester] came in with a Ki of 669 nM. Further, on Bradykinin-1 receptor [2], the half-inhibitory concentration (IC50) came to 332 nM.
In the case of `Cc1nc(-c2c(F)cc(Cl)cc2-c2cc(F)c3c(c2)CCC3NC(=O)C2(NC(=O)OC(C)(C)C)CC2)no1` (racemic) [Example 31, (1-{(rac)-5-[5-Chloro-3-fluoro-2-(5-methyl-[1,2,4]oxadiazol-3-yl)-phenyl]-7-fluoro-indan-1-ylcarbamoyl}-cyclopropyl)-carbamic acid tert-butyl ester], the affinity on Bradykinin-1 receptor [1], expressed as Ki, was 475 nM. In addition, the concentration for half-maximal inhibition (IC50) on Bradykinin-1 receptor [2] turned out to be 135 nM.
The compound `Cc1nc(-c2c(F)cc(Cl)cc2-c2cc(F)c3c(c2)CCC3NC(=O)C2(NC(=O)C(F)(F)F)CC2)no1` (racemic) [Example 16, 1-(2,2,2-Trifluoro-acetylamino)-cyclopropanecarboxylic acid{(rac)-5-[5-chloro-3-fluoro-2-(5-methyl-[1,2,4]oxadiazol-3-yl)-phenyl]-7-fluoro-indan-1-yl}-amide] registered a Ki at Bradykinin-1 receptor [1] of 11 nM. Besides, the IC50 on Bradykinin-1 receptor [2] stood at 0.5 nM.
Turning to `Cc1nc(-c2c(F)cc(Cl)cc2-c2ccc3c(c2)CCCC3NC(=O)C2(NC(=O)C(F)(F)F)CC2)no1` (racemic) [Example 11, 1-(2,2,2-Trifluoro-acetylamino)-cyclopropanecarboxylic acid{(rac)-6-[5-chloro-3-fluoro-2-(5-methyl-[1,2,4]oxadiazol-3-yl)-phenyl]-1,2,3,4-tetrahydro-naphthalen-1-yl}-amide], the affinity at Bradykinin-1 receptor [1], expressed as Ki, was 41.6 nM. Also, the 50% inhibitory concentration (IC50) on Bradykinin-1 receptor [2] turned out to be 4 nM.
`Cc1nc(-c2c(F)cc(Cl)cc2-c2ccc3c(c2)CC[C@@H]3NC(=O)C2(NC(=O)C(F)(F)F)COC2)no1` [Example 7, 3-(2,2,2-Trifluoro-acetylamino)-oxetane-3-carboxylic acid{(S)-5-[5-chloro-3-fluoro-2-(5-methyl-[1,2,4]oxadiazol-3-yl)-phenyl]-indan-1-yl}-amide] displayed a Ki on Bradykinin-1 receptor [1] of 37.4 nM. For the same compound, at Bradykinin-1 receptor [2], the half-inhibitory concentration (IC50) was found to be 28.6 nM.
`Cn1nnc(-c2c(F)cc(Cl)cc2-c2ccc3c(c2)SCC3NC(=O)C2(NC(=O)c3ccno3)CC2)n1` (racemic) [Example 64, Isoxazole-5-carboxylic acid(1-{(rac)-6-[5-chloro-3-fluoro-2-(2-methyl-2H-tetrazol-5-yl)-phenyl]-2,3-dihydro-benzo[b]thiophen-3-ylcarbamoyl}-cyclopropyl)-amide] registered a Ki on Bradykinin-1 receptor [1] of 7.1 nM. The concentration for half-maximal inhibition (IC50) on Bradykinin-1 receptor [2] was 0.5 nM.
Taken in the same sequence, the figures for `Cc1nc(-c2c(F)cc(Cl)cc2-c2cc(F)c3c(c2)CCC3NC(=O)C2(N)CC2)no1` (racemic) [Example 32, 1-Amino-cyclopropanecarboxylic acid{(rac)-5-[5-chloro-3-fluoro-2-(5-methyl-[1,2,4]oxadiazol-3-yl)-phenyl]-7-fluoro-indan-1-yl}-amide] were 458 nM and 95.6 nM.
Taken in the same sequence, the figures for `Cc1nc(-c2c(F)cc(Cl)cc2-c2ccc3c(c2)CC[C@@H]3NC(=O)C2(NC(=O)c3ccno3)COC2)no1` [Example 51, Isoxazole-5-carboxylic acid (3-{(S)-5-[5-chloro-3-fluoro-2-(5-methyl-[1,2,4]oxadiazol-3-yl)-phenyl]-indan-1-ylcarbamoyl}-oxetan-3-yl)-amide] were 11.8 nM and 2.7 nM.
The corresponding values for `Cn1nnc(-c2c(F)cc(Cl)cc2-c2ccc3c(c2)SCC3NC(=O)C2(NC(=O)C(F)(F)F)CC2)n1` (racemic) [Example 22, 1-(2,2,2-Trifluoro-acetylamino)-cyclopropanecarboxylic acid{(rac)-6-[5-chloro-3-fluoro-2-(2-methyl-2H-tetrazol-5-yl)-phenyl]-2,3-dihydro-benzo[b]thiophen-3-yl}-amide] are 6.6 nM and 0.8 nM.
For the compound `COc1ncc(C(=O)NC2(C(=O)NC3COc4cc(-c5cc(Cl)cc(F)c5-c5noc(C)n5)ccc43)CC2)cn1` (racemic) [Example 47, 2-Methoxy-pyrimidine-5-carboxylic acid(1-{(rac)-6-[5-chloro-3-fluoro-2-(5-methyl-[1,2,4]oxadiazol-3-yl)-phenyl]-2,3-dihydro-benzofuran-3-ylcarbamoyl}-cyclopropyl)-amide], on Bradykinin-1 receptor [1], affinity was put at a Ki of 5.4 nM. At Bradykinin-1 receptor [2], the IC50 stood at 0.2 nM.
Take `COC(=O)c1c(Cl)cccc1-c1ccc2c(c1)CC[C@@H]2NC(=O)C1(NC(=O)C(F)(F)F)COC1` [Example 6, 2-Chloro-6-((S)-1-{[3-(2,2,2-trifluoro-acetylamino)-oxetane-3-carbonyl]-amino}-indan-5-yl)-benzoic acid methyl ester]: on Bradykinin-1 receptor [1], the inhibition constant (Ki) was determined as 381 nM. Moreover, the IC50 on Bradykinin-1 receptor [2] was found to be 455 nM.
As to `Cc1cc(C(=O)NC2(C(=O)N[C@H]3CCc4cc(-c5cc(Cl)cc(F)c5-c5noc(C)n5)ccc43)COC2)on1` [Example 52, 3-Methyl-isoxazole-5-carboxylic acid (3-{(S)-5-[5-chloro-3-fluoro-2-(5-methyl-[1,2,4]oxadiazol-3-yl)-phenyl]-indan-1-ylcarbamoyl}-oxetan-3-yl)-amide], at Bradykinin-1 receptor [1], the Ki turned out to be 25.7 nM. At Bradykinin-1 receptor [2], the half-inhibitory concentration (IC50) came to 4.3 nM.
`Cc1nc(-c2c(F)cc(Cl)cc2-c2cnc3c(c2)CCC3NC(=O)C2(N)CC2)no1` (racemic) [Example 37, 1-Amino-cyclopropanecarboxylic acid{(rac)-3-[5-chloro-3-fluoro-2-(5-methyl-[1,2,4]oxadiazol-3-yl)-phenyl]-6,7-dihydro-5H-[1]pyrindin-7-yl}-amide] displayed an inhibitory constant (Ki) at Bradykinin-1 receptor [1] of 591 nM. Besides, the IC50 on Bradykinin-1 receptor [2] amounted to 301 nM.
`Cn1nnc(-c2c(F)cc(Cl)cc2-c2cnc3c(c2)CCC3NC(=O)C2(NC(=O)C(F)(F)F)CC2)n1` (racemic) [Example 13, 1-(2,2,2-Trifluoro-acetylamino)-cyclopropanecarboxylic acid{(rac)-3-[5-chloro-3-fluoro-2-(2-methyl-2H-tetrazol-5-yl)-phenyl]-6,7-dihydro-5H-[1]pyrindin-7-yl}-amide] had a Ki at Bradykinin-1 receptor [1] of 9.5 nM. Also, the concentration for half-maximal inhibition (IC50) on Bradykinin-1 receptor [2] was determined as 0.5 nM.
Taken in the same sequence, the figures for `Cc1nc(-c2c(F)cc(Cl)cc2-c2cnc3c(c2)CCC3NC(=O)C2(NC(=O)c3ccnnc3)CC2)no1` (racemic) [Example 39, Pyridazine-4-carboxylic acid(1-{(rac) 3-[5-chloro-3-fluoro-2-(5-methyl-[1,2,4]oxadiazol-3-yl)-phenyl]-6,7-dihydro-5H-[1]pyrindin-7-ylcarbamoyl}-cyclopropyl)-amide] were 7.5 nM and 0.6 nM.
At Bradykinin-1 receptor [1], `Cn1nnc(-c2c(F)cc(Cl)cc2-c2ccc3c(c2)SCC3NC(=O)C2(NC(=O)c3cncnc3)CC2)n1` (racemic) [Example 63, Pyrimidine-5-carboxylic acid(1-{(rac)-6-[5-chloro-3-fluoro-2-(2-methyl-2H-tetrazol-5-yl)-phenyl]-2,3-dihydro-benzo[b]thiophen-3-ylcarbamoyl}-cyclopropyl)-amide] came in with a Ki of 4.8 nM. In addition, at Bradykinin-1 receptor [2], the concentration for half-maximal inhibition (IC50) worked out at 0.2 nM.
`COc1cc(C(=O)NC2(C(=O)NC3CCc4cc(-c5cc(Cl)cc(F)c5-c5noc(C)n5)cc(F)c43)CC2)on1` (racemic) [Example 35, 3-Methoxy-isoxazole-5-carboxylic acid(1-{(rac)-5-[5-chloro-3-fluoro-2-(5-methyl-[1,2,4]oxadiazol-3-yl)-phenyl]-7-fluoro-indan-1-ylcarbamoyl}-cyclopropyl)-amide]: on Bradykinin-1 receptor [1], the Ki was 17.1 nM. For the same compound, the 50% inhibitory concentration (IC50) at Bradykinin-1 receptor [2] was found to be 0.5 nM.
In the case of `COc1ncc(C(=O)NC2(C(=O)NC3CCc4cc(-c5cc(Cl)cc(F)c5-c5noc(C)n5)cnc43)CC2)cn1` (racemic) [Example 42, 2-Methoxy-pyrimidine-5-carboxylic acid(1-{(rac)-3-[5-chloro-3-fluoro-2-(5-methyl-[1,2,4]oxadiazol-3-yl)-phenyl]-6,7-dihydro-5H-[1]pyrindin-7-ylcarbamoyl}-cyclopropyl)-amide], at Bradykinin-1 receptor [1], the Ki amounted to 4 nM. Also, the IC50 on Bradykinin-1 receptor [2] worked out at 0.2 nM.

By Ki is commonly meant the equilibrium dissociation constant of an inhibitor or competing ligand from its target. In general, IC50 refers to the point on the concentration scale where inhibition reaches its midpoint.
